Patent US20160192626A1, “Method For Creating Endometriotic Cells And Endometriosis Model Animal” (KYOTO UNIVERSITY, priority 2013, published 2016)

Tested on: endometriotic-like cells
Assay: Estrogen (E2) production ability of endometriotic-like cells from androgens of adrenal origin, Estradiol EIA
Format: cell-based, human
Details: final concentration 1 mM, 48 hours, cells produced in the step (3)
Protocol: In this Experimental Example, the cells produced in the step (3) were confirmed for their ability to produce estradiol (E2), which was an estrogen. The cells (1×10^5 cells) produced in the step (3) were added to 1 ml of a low-carbon-source proliferation culture medium supplemented with bovine serum albumin (BSA) at 0.1% (v/v) in place of FBS, inoculated into a 12-well plate having a surface coated with collagen type I (derived from rat tail, BD Biosciences, Cat. No. 354236), and cultured for 24 hours at 37° C. in the presence of 5% CO2.
After that, A-dione (Tokyo Chemical Industry Co., Ltd.; androstenedione), DHEA (Tokyo Chemical Industry Co., Ltd.), or DHEA-sulfate (Tokyo Chemical Industry Co., Ltd.; DHEA-S, inactivated adrenal androgen), which was an androgen of adrenal origin, was added to the culture medium so that the final concentration became 1 mM, and the cells were further cultured for 48 hours. As a control (vehicle), the cells were cultured in the same manner as described above except that dimethylsulfoxide (DMSO), which was a solvent, was added in place of the androgen.
The concentration of E2 in the culture supernatant was measured by using Estradiol EIA kit (Cayman Chemical, Cat. No. 582251) according to the manual of the kit.

| SMILES | E2 production from the added androgen (concentration of E2 in the culture supernatant) |
| --- | --- |
| C[C@]12CC[C@H](O)CC1=CC[C@@H]1[C@@H]2CC[C@]2(C)C(=O)CC[C@@H]12 [DHEA, dehydoepiandorosterone] | produced E2 |
| C[C@]12CCC(=O)C=C1CC[C@@H]1[C@@H]2CC[C@]2(C)C(=O)CC[C@@H]12 [A-dione, androstenedione] | produced E2 |
| C[C@]12CC[C@H](OS(=O)(=O)O)CC1=CC[C@@H]1[C@@H]2CC[C@]2(C)C(=O)CC[C@@H]12 [DHEA-S, DHEA-sulfate] | did not produce E2 |
